This assay has as its system Plasmodium falciparum. As to the kind of experiment: GSK_TCMDC: Inhibition of Plasmodium falciparum 3D7 in whole erythrocytes, using parasite LDH activity as an index of growth. To be noted: Plasmodium falciparum, 3D7. It counts as functional, organism-based.
In turn, `CCN(CC)Cc1cc(Nc2ccnc3cc(Cl)ccc23)ccc1O` displayed an XC50 of 160 nM. The compound `Cn1cnc2c(Nc3ccncc3)nc(-c3ccc4c(c3)OCO4)nc21` had an XC50 of 1110 nM.

`COc1cc(NC(=O)Nc2cccc3ccccc23)c(OC)cc1Cl` gave an XC50 of 484 nM. For the compound `CCOC(=O)c1ccc(NC(=O)N(Cc2ccc(-c3cccc(CN4CCNCC4)c3)cc2)C2CCN(Cc3ccccc3)CC2)cc1`, the XC50 turned out to be 748 nM.

As for `O=C(NCCN1CCOCC1)c1ccc(CNC(=O)c2ccc(O)c(-c3ccc(Cl)c(Cl)c3)c2)cc1`, the XC50 was 929 nM.

`CN(C)c1ccc(C2(c3ccccc3)N=C(N)N(CCCc3ccccc3)C2=O)cc1` (stereo not given): the XC50 stood at 971 nM.

Consider `COc1cccc(C2CCN(CCN3CCC(NC(=O)c4ccc(-c5ccc(C#N)cc5)cc4)CC3)CC2)c1`, for which the XC50 amounted to 699 nM. Take `Oc1ccc2c(CNCCc3ccccc3)c(O)ccc2c1CNCCc1ccccc1`: the XC50 worked out at 104 nM. As for `c1ccc2cc3c(Nc4ccc(N5CCCCC5)cc4)ccnc3cc2c1`, the XC50 is 739 nM. Compound `COc1ccccc1CN1CCC(CNC(=O)c2cc(-c3cccc(C(F)(F)F)c3)cs2)C1` (stereo not given) gave an XC50 of 1310 nM. In turn, `Cc1cccc2nc(-c3ccc(-c4ccc(NC(=O)Nc5cccc(C#N)c5)cc4)cc3)[nH]c12` gave an XC50 of 114 nM. `COc1cc(CCNc2nc(NCc3cccc4ccccc34)nc(N3CCC(N)CC3)n2)ccc1O` gave an XC50 of 787 nM.

As to `COCCNCc1nc(-c2ccc3c(Nc4ccc(Cl)cc4F)ccnc3c2)cs1`, the XC50 was determined as 1080 nM. `N=C(N)c1ccc(-c2cc3ccc(C(=N)N)cc3[nH]2)cc1` yielded an XC50 of 59.9 nM.

In turn, `O=C(O)c1cc(C(F)(F)F)co1` came in with an XC50 of 825 nM. Compound `Cc1cccc2nc(-c3ccc(-c4ccc(CN5CCC(CCN6CCCCC6)CC5)cc4)cc3)[nH]c12` showed an XC50 of 144 nM. `COc1cc2ccccc2cc1OCCCN1CCN(CC(c2ccc(F)cc2)N2CCN(C(C)C)CC2)CC1` (stereo not given) registered an XC50 of 749 nM. The figure for `C=CCc1ccc(C2CCN(CCCCNC(=O)c3ccc(NC(=O)c4ccc(Cl)cc4)cc3)CC2)cc1` is 1120 nM.

`FC(F)(F)c1ccc2[nH]c(-c3ccc(-c4cccc(CNCC5CCCO5)c4)cc3)nc2c1` (stereo not given) displayed an XC50 of 250 nM.

As for `COc1cc(NC(=O)c2sc(-c3ccc(Cl)cc3)cc2NC(=O)CN2CC[C@@H](O)C2)ccc1OCCN1CCCC1`, the XC50 stood at 802 nM. `Clc1cccc(C=NNc2nc(=Nc3ccccc3)[nH]c(=Nc3ccccc3)[nH]2)c1` came in with an XC50 of 844 nM. Compound `CC(C)CNC(=O)c1cncc(-c2ccc(CN(C)C3CCN(C)CC3)cc2)c1` returned an XC50 of 878 nM. The figure for `CC(=O)Nc1ccc(OCCCCCOc2ccc(NC(C)=O)cc2Cl)c(Cl)c1` is 833 nM; for `O=C(Nc1cccc(C2=NCCCN2)c1)Nc1cccc(C2=NCCCN2)c1` it is 561 nM; for `N#Cc1cc(C(=O)c2cc(Cl)ccc2O)cn(-c2cccc(C(F)(F)F)c2)c1=O` it is 1130 nM. In the case of `C=CCOc1ccc(-c2c(C)[nH]c(C)c(Br)c2=O)cc1`, the XC50 came out at 283 nM.

Compound `COc1ccc(NCc2cccc(-c3cccc(CNCCc4ccccc4)c3)c2)cc1` registered an XC50 of 1050 nM. The compound `CCCCc1ccc(NC(=O)Nc2ccc3c(c2)CCNCC3)cc1` registered an XC50 of 585 nM.

As to `Cc1cc(N)nc2ccc(-c3ccc(CN)cc3)cc12`, the XC50 is 621 nM. The compound `CN1CCC(C(=O)N(Cc2ccc(-c3ccc(CNCCc4ccc(S(C)(=O)=O)cc4)cn3)cc2)C2Cc3ccccc3C2)CC1` registered an XC50 of 665 nM. `COc1ccccc1-n1ccnc1SCC(=O)Nc1cc(C(F)(F)F)ccc1Cl` yielded an XC50 of 9.3 nM. In turn, `Cc1cc(=O)[nH]c(-n2nc(C)cc2NC(=O)C2(c3ccc(Cl)cc3)CCCC2)n1` displayed an XC50 of 288 nM.

Compound `CN1CCN(c2ccc(Nc3nccc(-c4cnn5ncccc45)n3)cc2Cl)CC1` came in with an XC50 of 833 nM. Regarding `Cc1ccccc1CN1CCCN(Cc2ccc(C(=O)Nc3ccc(Cl)cc3)cc2)CC1`, the XC50 was found to be 944 nM.

Consider `Cc1ccc2nc(C)n(C3CCN(C(=O)C4(c5ccccc5)CC4)CC3)c2c1`, for which the XC50 was found to be 821 nM.

These data come from ChEMBL document CHEMBL1157539, “Thousands of chemical starting points for antimalarial lead identification” (Nature, 2010).
